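Test compounds were applied to cells in 96-well plates for 48 hours at 5 doses. GI50 marks 50% less growth.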 Calls of active or inactive are those of the source. Cut-off read from the data, not from the text of the source: active = GI50 up to about 1.1 µM and inactive = higher.
Legend:
Experiment in all cases: NCI tumour cell line growth inhibition, 48 h
SNB-78 = system: SNB-78
HCT-116 = system: HCT-116
SNB-75 = system: SNB-75
MOLT-4 = system: MOLT-4
NCI-H23 = system: NCI-H23
M19-MEL = system: M19-MEL
SK-MEL-2 = system: SK-MEL-2
KM12 = system: KM12
DMS-273 = system: DMS-273
DMS-114 = system: DMS-114
EKVX = system: EKVX
HCT-15 = system: HCT-15
OVCAR-3 = system: OVCAR-3
A498 = system: A498
A549 = system: A549
ACHN = system: ACHN
SK-MEL-28 = system: SK-MEL-28
UACC-257 = system: UACC-257
UO-31 = system: UO-31
NCI-H226 = system: NCI-H226
SF-295 = system: SF-295
HOP-62 = system: HOP-62
NCI-H460 = system: NCI-H460
HCC 2998 = system: HCC 2998
KM-20L2 = system: KM-20L2
TK-10 = system: TK-10
HOP-18 = system: HOP-18
SN12C = system: SN12C
HL-60 = system: HL-60
OVCAR-8 = system: OVCAR-8
RPMI-8226 = system: RPMI-8226
UACC-62 = system: UACC-62
SF-268 = system: SF-268
K562 = system: K562
IGROV-1 = system: IGROV-1
U-251 = system: U-251
HOP-92 = system: HOP-92
SF-539 = system: SF-539
LOX IMVI = system: LOX IMVI
SW-620 = system: SW-620
SR = system: SR
M14 = system: M14
DLD-1 = system: DLD-1
CCRF-CEM = system: CCRF-CEM
SK-OV-3 = system: SK-OV-3
COLO 205 = system: COLO 205
HT-29 = system: HT-29
SNB-19 = system: SNB-19
OVCAR-5 = system: OVCAR-5
Malme-3M = system: Malme-3M
SK-MEL-5 = system: SK-MEL-5
786-0 = system: 786-0
XF498 = system: XF498
LXFL 529 = system: LXFL 529
NCI-H522 = system: NCI-H522
CAKI-1 = system: CAKI-1
RXF 393 = system: RXF 393
OVCAR-4 = system: OVCAR-4

With `CN(C)CC1CCCC(CN(C)C)C1=NOC(=O)c1ccccc1` (stereo unspecified) the GI50 (SNB-78) was > 100 µM (inactive), the GI50 (HCT-116) was > 100 µM (inactive) and the GI50 (SNB-75) was > 56.5 µM (inactive). The GI50 (MOLT-4) was > 100 µM (inactive), the GI50 (NCI-H23) was > 100 µM (inactive) and the GI50 (M19-MEL) was > 100 µM (inactive). The GI50 (SK-MEL-2) was > 100 µM (inactive), the GI50 (KM12) was > 100 µM (inactive) and the GI50 (DMS-273) was > 100 µM (inactive). For the same compound, the GI50 (DMS-114) was > 100 µM (inactive), the GI50 (EKVX) was > 100 µM (inactive) and the GI50 (HCT-15) was greater than 100 µM. The GI50 (OVCAR-3) was > 100 µM (inactive), the GI50 (A498) was > 100 µM (inactive) and the GI50 (A549) was > 100 µM (inactive). The GI50 (ACHN) was > 100 µM (inactive), the GI50 (SK-MEL-28) was > 100 µM (inactive) and the GI50 (UACC-257) was > 100 µM (inactive). For the same compound, the GI50 (UO-31) was > 100 µM (inactive), the GI50 (NCI-H226) was > 100 µM (inactive) and the GI50 (SF-295) was > 100 µM (inactive). The GI50 (HOP-62) was > 100 µM (inactive), the GI50 (NCI-H460) was > 100 µM (inactive) and the GI50 (HCC 2998) was > 100 µM (inactive). For the same compound, the GI50 (KM-20L2) was > 100 µM (inactive), the GI50 (TK-10) was > 100 µM (inactive) and the GI50 (HOP-18) was > 81.8 µM (inactive). For the same compound, the GI50 (SN12C) was > 100 µM (inactive), the GI50 (HL-60) was > 100 µM (inactive) and the GI50 (OVCAR-8) was > 100 µM (inactive). The GI50 (RPMI-8226) was > 100 µM (inactive), the GI50 (UACC-62) was > 100 µM (inactive) and the GI50 (SF-268) was > 100 µM (inactive). For the same compound, the GI50 (K562) was > 100 µM (inactive), the GI50 (IGROV-1) was > 100 µM (inactive) and the GI50 (U-251) was > 100 µM (inactive). For the same compound, the GI50 (HOP-92) was > 100 µM (inactive), the GI50 (SF-539) was > 100 µM (inactive) and the GI50 (LOX IMVI) was > 100 µM (inactive). For the same compound, the GI50 (SW-620) was > 100 µM (inactive), the GI50 (SR) was > 100 µM (inactive) and the GI50 (M14) was > 100 µM (inactive). The GI50 (DLD-1) was > 100 µM (inactive), the GI50 (CCRF-CEM) was > 100 µM (inactive) and the GI50 (SK-OV-3) was > 100 µM (inactive). The GI50 (COLO 205) was > 100 µM (inactive), the GI50 (HT-29) was > 100 µM (inactive) and the GI50 (SNB-19) was > 100 µM (inactive). The GI50 (OVCAR-5) was > 100 µM (inactive), the GI50 (Malme-3M) was > 100 µM (inactive) and the GI50 (SK-MEL-5) was > 100 µM (inactive). The GI50 (786-0) was > 100 µM (inactive), the GI50 (XF498) was > 100 µM (inactive) and the GI50 (LXFL 529) was > 100 µM (inactive). For the same compound, the GI50 (NCI-H522) was > 100 µM (inactive).

For `N#CC(C(=N/O)/C(=N/O)C(C#N)c1ccc(Cl)cc1)c1ccc(Cl)cc1` (stereo unspecified), the GI50 (CAKI-1) was 42.9 µM (inactive), the GI50 (SNB-78) was 23.4 µM (inactive) and the GI50 (HCT-116) was > 100 µM (inactive). For the same compound, the GI50 (SNB-75) was 42 µM (inactive), the GI50 (NCI-H23) was 92.5 µM (inactive) and the GI50 (M19-MEL) was > 100 µM (inactive). The GI50 (SK-MEL-2) was > 100 µM (inactive), the GI50 (KM12) was > 100 µM (inactive) and the GI50 (DMS-273) was > 100 µM (inactive). The GI50 (DMS-114) was > 100 µM (inactive), the GI50 (EKVX) was > 100 µM (inactive) and the GI50 (HCT-15) was 55.2 µM. For the same compound, the GI50 (OVCAR-3) was > 100 µM (inactive), the GI50 (A498) was > 100 µM (inactive) and the GI50 (A549) was > 100 µM (inactive). The GI50 (ACHN) was > 100 µM (inactive), the GI50 (SK-MEL-28) was > 100 µM (inactive) and the GI50 (UACC-257) was > 100 µM (inactive). For the same compound, the GI50 (UO-31) was > 100 µM (inactive), the GI50 (NCI-H226) was 75.5 µM (inactive) and the GI50 (SF-295) was > 100 µM (inactive). The GI50 (HOP-62) was > 100 µM (inactive), the GI50 (RXF 393) was 46.7 µM (inactive) and the GI50 (NCI-H460) was > 100 µM (inactive). The GI50 (HCC 2998) was 84.1 µM (inactive), the GI50 (KM-20L2) was > 100 µM (inactive) and the GI50 (TK-10) was > 100 µM (inactive). For the same compound, the GI50 (OVCAR-4) was > 100 µM (inactive), the GI50 (HOP-18) was 43.6 µM (inactive) and the GI50 (SN12C) was > 100 µM (inactive). For the same compound, the GI50 (OVCAR-8) was 40 µM (inactive), the GI50 (RPMI-8226) was 40.5 µM (inactive) and the GI50 (UACC-62) was 91.4 µM (inactive). For the same compound, the GI50 (SF-268) was > 100 µM (inactive), the GI50 (IGROV-1) was > 100 µM (inactive) and the GI50 (U-251) was > 100 µM (inactive). For the same compound, the GI50 (HOP-92) was > 100 µM (inactive), the GI50 (SF-539) was > 100 µM (inactive) and the GI50 (LOX IMVI) was 82.8 µM (inactive). The GI50 (SW-620) was 76.7 µM (inactive), the GI50 (M14) was > 100 µM (inactive) and the GI50 (DLD-1) was > 100 µM (inactive). The GI50 (SK-OV-3) was > 100 µM (inactive), the GI50 (COLO 205) was 64.6 µM (inactive) and the GI50 (HT-29) was > 100 µM (inactive). For the same compound, the GI50 (SNB-19) was > 100 µM (inactive), the GI50 (OVCAR-5) was > 100 µM (inactive) and the GI50 (Malme-3M) was > 100 µM (inactive). The GI50 (786-0) was > 100 µM (inactive), the GI50 (XF498) was > 100 µM (inactive) and the GI50 (LXFL 529) was 30.4 µM (inactive).
